The target of this test is CSF-1R (FMS) (Homo sapiens (Human), UniProt P07333). The experiment in a line: SelectScreen Z'-LYTE kinase assay, Assay 336 for CSF-1R (FMS). It counts as biochemical. The conditions noted are these: Z'-LYTE activity assay, 500 μM ATP (Km app); read-out: CSF-1R Enzyme IC50.

The values that follow come from patent US11028064B2, “Tricyclic heterocyclic derivatives and uses thereof” (AUCKLAND UNISERVICES LIMITED, priority 2016, dated 2021).

Chain of CSF-1R (FMS) (P07333 20-972): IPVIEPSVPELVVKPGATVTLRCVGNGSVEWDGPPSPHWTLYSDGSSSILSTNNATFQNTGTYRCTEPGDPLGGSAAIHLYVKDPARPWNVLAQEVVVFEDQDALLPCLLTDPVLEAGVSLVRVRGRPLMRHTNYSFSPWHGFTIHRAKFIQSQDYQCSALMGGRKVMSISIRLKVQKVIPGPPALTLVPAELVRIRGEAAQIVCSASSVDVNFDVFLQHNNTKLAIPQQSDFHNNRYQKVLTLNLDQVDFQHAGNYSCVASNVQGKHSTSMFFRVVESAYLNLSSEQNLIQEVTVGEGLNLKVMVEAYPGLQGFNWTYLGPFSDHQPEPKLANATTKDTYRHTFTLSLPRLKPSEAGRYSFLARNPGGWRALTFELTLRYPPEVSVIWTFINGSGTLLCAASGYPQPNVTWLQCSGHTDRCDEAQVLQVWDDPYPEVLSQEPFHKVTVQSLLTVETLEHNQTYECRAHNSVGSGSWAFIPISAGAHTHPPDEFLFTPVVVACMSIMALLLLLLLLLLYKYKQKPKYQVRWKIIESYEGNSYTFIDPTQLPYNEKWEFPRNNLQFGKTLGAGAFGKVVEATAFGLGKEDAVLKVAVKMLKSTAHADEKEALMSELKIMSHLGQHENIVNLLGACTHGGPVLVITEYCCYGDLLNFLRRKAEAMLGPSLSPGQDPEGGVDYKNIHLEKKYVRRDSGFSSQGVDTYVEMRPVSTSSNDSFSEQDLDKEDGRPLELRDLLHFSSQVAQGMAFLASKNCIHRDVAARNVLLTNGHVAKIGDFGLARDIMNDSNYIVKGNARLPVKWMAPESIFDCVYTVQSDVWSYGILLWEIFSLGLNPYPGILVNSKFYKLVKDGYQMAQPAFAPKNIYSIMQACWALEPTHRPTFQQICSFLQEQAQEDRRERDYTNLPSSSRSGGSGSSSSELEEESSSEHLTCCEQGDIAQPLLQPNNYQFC

For orientation: IC50 means the concentration needed to halve the response being measured. For `COc1ccc(CCc2ccc(Oc3ccc4c(=O)c5cccc(OCCN(C)C)c5oc4c3)cn2)cc1` [Example 3, 5-[2-(Dimethylamino)ethoxy]-3-({6-[2-(4-methoxyphenyl)ethyl]-3-pyridinyl}oxy)-9H-xanthen-9-one], the IC50 is 0.1 to 1 µM. As to `COc1ccc(COc2ccc(Oc3ccc4c(=O)c5cc(C)cc(OCCN(C)C)c5oc4c3)cc2OC)cc1` [Example 7], the IC50 is below 0.1 µM. `COc1ccc(COc2ccc(Oc3ccc4c(=O)c5cc(C)cc(OCCN(C)C)c5oc4c3)cn2)cc1` [Example 10, 4-(2-(Dimethylamino)ethoxy)-6-((6-((4-methoxybenzyl)oxy)pyridin-3-yl)oxy)-2-methyl-9H-xanthen-9-one]: the IC50 was below 0.1 µM. As for `COc1ccc(COc2ccc(Oc3ccc4c(=O)c5cc(C)cc(OCCN(C)C)c5oc4c3)cn2)cn1` [Example 11, 4-(2-(Dimethylamino)ethoxy)-6-((6-((6-methoxypyridin-3-yl)methoxy)pyridin-3-yl)oxy)-2-methyl-9H-xanthen-9-one], the IC50 was below 0.1 µM. Regarding `COc1ccc(COc2ncc(Oc3ccc4c(=O)c5cc(C)cc(OCCN(C)C)c5oc4c3)cc2OC)cc1` [Example 12, 4-(2-(Dimethylamino)ethoxy)-6-((5-methoxy-6-((4-methoxybenzyl)oxy)pyridin-3-yl)oxy)-2-methyl-9H-xanthen-9-one], the IC50 is below 0.1 µM. As to `Cc1cc(OCCN(C)C)c2oc3cc(Oc4ccc(OCc5ccc(C(F)(F)F)nc5)nc4)ccc3c(=O)c2c1` [Example 13, 4-(2-(Dimethylamino)ethoxy)-2-methyl-6-((6-((6-(trifluoromethyl)pyridin-3-yl)meth-oxy)pyridin-3-yl)oxy)-9H-xanthen-9-one], the half-maximal inhibitory concentration (IC50) was below 0.1 µM.

Take `COc1ccc(CNc2ccc(Oc3ccc4c(=O)c5cc(C)cc(OCCN(C)C)c5oc4c3)cn2)cc1` [Example 14, 4-(2-(Dimethylamino)ethoxy)-6-((6-((4-methoxybenzyl)amino)pyridin-3-yl)oxy)-2-methyl-9H-xanthen-9-one]: the concentration for half-maximal inhibition (IC50) was below 0.1 µM.

Take `COc1ccc(CNc2ccc(Oc3ccc4c(=O)c5cc(C)cc(OCCN(C)C)c5oc4c3)cn2)cn1` [Example 16, 4-(2-(Dimethylamino)ethoxy)-6-((6-(((6-methoxypyridin-3-yl)methyl)amino)pyridin-3-yl)oxy)-2-methyl-9H-xanthen-9-one]: the IC50 is below 0.1 µM. For `COc1ccc(CCc2ccc(Oc3ccc4c(=O)c5cc(C)cc(OCCN(C)C)c5oc4c3)cn2)cc1` [Example 18, 4-(2-(Dimethylamino)ethoxy)-6-((6-(4-methoxyphenethyl)pyridin-3-yl)oxy)-2-methyl-9H-xanthen-9-one], the IC50 is below 0.1 µM. `Cc1cc(OCCN(C)C)c2oc3cc(Oc4ccc(CCC(=O)Nc5cccnc5)nc4)ccc3c(=O)c2c1` [Example 21, 3-(5-((5-(2-(Dimethylamino)ethoxy)-7-methyl-9-oxo-9H-xanthen-3-yl)oxy)pyridin-2-yl)-N-(pyridin-3-yl)propanamide]: the IC50 was below 0.1 µM. Turning to `Cc1cc(OCCN(C)C)c2oc3cc(Oc4ccc(CCC(=O)NC5CCCC5)nc4)ccc3c(=O)c2c1` [Example 22, N-Cyclopentyl-3-(5-((5-(2-(dimethylamino)ethoxy)-7-methyl-9-oxo-9H-xanthen-3-yl)-oxy)pyridin-2-yl)propanamide], the IC50 was below 0.1 µM. As to `Cc1cc(OCCN(C)C)c2oc3cc(Oc4ccc(CCC(=O)N5CCOCC5)nc4)ccc3c(=O)c2c1` [Example 24, 4-(2-(Dimethylamino)ethoxy)-2-methyl-6-((6-(3-morpholino-3-oxopropyl)pyridin-3-yl)oxy)-9H-xanthen-9-one], the IC50 is below 0.1 µM. On to `Cc1cc(OCCN(C)C)c2oc3cc(Oc4ccc(CCNC(=O)C5CCCC5)nc4)ccc3c(=O)c2c1` [Example 26, N-(2-(5-((5-(2-(Dimethylamino)ethoxy)-7-methyl-9-oxo-9H-xanthen-3-yl)oxy)pyridin-2-yl)ethyl)cyclopentanecarboxamide], for which the IC50 was below 0.1 µM. Then `Cc1cc(OCCN(C)C)c2oc3cc(Oc4ccc(CCNC(=O)N5CCCC5)nc4)ccc3c(=O)c2c1` [Example 27, N-(2-(5-((5-(2-(Dimethylamino)ethoxy)-7-methyl-9-oxo-9H-xanthen-3-yl)oxy)pyridin-2-yl)ethyl)pyrrolidine-1-carboxamide], with below 0.1 µM. For `Cc1cc(OCCN)c2oc3cc(Oc4ccc(CCC(=O)NC5CCCC5)nc4)ccc3c(=O)c2c1` [Example 28, 3-(5-((5-(2-Aminoethoxy)-7-methyl-9-oxo-9H-xanthen-3-yl)oxy)pyridin-2-yl)-N-cyclopentylpropanamide], the IC50 is below 0.1 µM. Regarding `Cc1cc(OCC2CCN(C)CC2)c2oc3cc(Oc4ccccc4)ccc3c(=O)c2c1` [Example 35, 2-Methyl-4-((1-methylpiperidin-4-yl)methoxy)-6-phenoxy-9H-xanthen-9-one], the half-inhibitory concentration (IC50) is 0.1 to 1 µM. As for `Cc1cc(OCCN2CCCCC2)c2oc3cc(Oc4ccc(CCC(=O)NC5CCCC5)nc4)ccc3c(=O)c2c1` [Example 38, N-Cyclopentyl-3-(5-((7-methyl-9-oxo-5-(2-(piperidin-1-yl)ethoxy)-9H-xanthen-3-yl)oxy)pyridin-2-yl)propanamide], the IC50 is below 0.1 µM. Take `CN(C)CCOc1cc(Cl)cc2c(=O)c3ccc(Oc4ccccc4)cc3oc12` [Example 39, 2-Chloro-4-[2-(dimethylamino)ethoxy]-6-phenoxy-9H-xanthen-9-one]: the IC50 is 1 to 10 µM. `CN(C)CCOc1cc(Cl)cc2c(=O)c3ccc(Oc4cccc(C(=O)Nc5ccccc5)c4)cc3oc12` [Example 40, 3-({7-Chloro-5-[2-(dimethylamino)ethoxy]-9-oxo-9H-xanthen-3-yl}oxy)-N-phenylbenzamide]: the IC50 is below 0.1 µM. For `COc1ccc(CCc2ccc(Oc3ccc4c(=O)c5cc(Cl)cc(OCCN(C)C)c5oc4c3)cn2)cc1` [Example 41, 2-Chloro-4-[2-(dimethylamino)ethoxy]-6-({6-[2-(4-methoxyphenyl)ethyl]-3-pyridinyl}oxy)-9H-xanthen-9-one], the IC50 was 0.1 to 1 µM.

As for `CN(C)CCOc1ccc2oc3cc(Oc4ccc(CCC(=O)NC5CCCC5)nc4)ccc3c(=O)c2c1` [Example 44, N-Cyclopentyl-3-(5-((7-(2-(dimethylamino)ethoxy)-9-oxo-9H-xanthen-3-yl)oxy)-pyridin-2-yl)propanamide], the IC50 is below 0.1 µM. Consider `COc1cc(OCCN(C)C)cc2c(=O)c3ccc(Oc4ccc(CCC(=O)NC5CCCC5)nc4)cc3oc12` [Example 46, N-Cyclopentyl-3-(5-((7-(2-(dimethylamino)ethoxy)-5-methoxy-9-oxo-9H-xanthen-3-yl)oxy)pyridin-2-yl)propanamide], for which the IC50 is below 0.1 µM. Turning to `CN(C)CCOc1ccc2c(=O)c3ccc(Oc4ccc(CCC(=O)NC5CCCC5)nc4)cc3oc2c1` [Example 47, N-Cyclopentyl-3-(5-((6-(2-(dimethylamino)ethoxy)-9-oxo-9H-xanthen-3-yl)oxy)pyridine-2-yl)propanamide], the concentration for half-maximal inhibition (IC50) is below 0.1 µM. Regarding `Cc1cc(OCCN(C)C)c2sc3cc(Oc4ccccc4)ccc3c(=O)c2c1` [Example 48, 4-(2-(Dimethylamino)ethoxy)-2-methyl-6-phenoxy-9H-thioxanthen-9-one], the IC50 is 0.1 to 1 µM. Then `Cc1cc(OCCN(C)C)c2sc3cc(Oc4cccc(C(=O)Nc5ccccc5)c4)ccc3c(=O)c2c1` [Example 49, 3-((5-(2-(Dimethylamino)ethoxy)-7-methyl-9-oxo-9H-thioxanthen-3-yl)oxy)-N-phenylbenzamide], with below 0.1 µM; and `COc1ccc(CCc2ccc(Oc3ccc4c(=O)c5cc(C)cc(OCCN(C)C)c5sc4c3)cn2)cc1` [Example 50, 4-(2-(Dimethylamino)ethoxy)-6-((6-(4-methoxyphenethyl)pyridin-3-yl)oxy)-2-methyl-9H-thioxanthen-9-one], with below 0.1 µM; and `Cc1cc(OCCN(C)C)c2sc3cc(Oc4ccc(CCC(=O)NC5CCCC5)nc4)ccc3c(=O)c2c1` [Example 51, N-Cyclopentyl-3-(5-((5-(2-(dimethylamino)ethoxy)-7-methyl-9-oxo-9H-thioxanthen-3-yl)oxy)pyridin-2-yl)propanamide], with below 0.1 µM.

Turning to `Cc1ccc2c(c1)c(=O)c1ccc(Sc3ccccc3)cc1n2CCCN(C)C` [Example 52, 10-(3-(Dimethylamino)propyl)-2-methyl-6-(phenylthio)acridin-9(10H)-one], the IC50 fell in the range of 1 to 10 µM.

Consider `Cc1cc(OCCN(C)C)c2oc3cc(Oc4ccc(CCC(=O)N5CCN(C)CC5)nc4)ccc3c(=O)c2c1` [Example 54, 4-(2-(Dimethylamino)ethoxy)-2-methyl-6-((6-(3-(4-methylpiperazin-1-yl)-3-oxopropyl)pyridin-3-yl)oxy)-9H-xanthen-9-one], for which the IC50 was below 0.1 µM. Then `CCN(CC)CCOc1cc(C)cc2c(=O)c3ccc(Oc4ccc(CCC(=O)NC5CCCC5)nc4)cc3oc12` [Example 55, N-Cyclopentyl-3-(5-((5-(2-(diethylamino)ethoxy)-7-methyl-9-oxo-9H-xanthen-3-yl)oxy)pyridin-2-yl)propanamide], with below 0.1 µM. As for `Cc1cc(OCCN2CCOCC2)c2oc3cc(Oc4ccc(CCC(=O)NC5CCCC5)nc4)ccc3c(=O)c2c1` [Example 56, N-Cyclopentyl-3-[5-({7-methyl-5-[2-(4-morpholinyl)ethoxy]-9-oxo-9H-xanthen-3-yl}oxy)-2-pyridinyl]propanamide], the half-maximal inhibitory concentration (IC50) is below 0.1 µM.

In the case of `Cc1cc(OCCN(C(C)C)C(C)C)c2oc3cc(Oc4ccc(CCC(=O)NC5CCCC5)nc4)ccc3c(=O)c2c1` [Example 57, N-Cyclopentyl-3-[5-({5-[2-(diisopropylamino)ethoxy]-7-methyl-9-oxo-9H-xanthen-3-yl}oxy)-2-pyridinyl]propanamide], the IC50 is below 0.1 µM. `Cc1cc(OC2CCCN(C)C2)c2oc3cc(Oc4ccc(CCC(=O)NC5CCCC5)nc4)ccc3c(=O)c2c1` (stereo not drawn) [Example 60, N-Cyclopentyl-3-(5-((7-methyl-5-((1-methylpiperidin-3-yl)oxy)-9-oxo-9H-xanthen-3-yl)oxy)pyridin-2-yl)propanamide]: the IC50 was below 0.1 µM.
